Laboratory results taken from US10183047B2, “Chromium-containing compositions in combination with Phyllanthus emblica and shilajit having synergistic effects for improving endothelial function and cardiovascular health” (Natreon, Inc., priority 2014, dated 2019).
Marks after values point to notes of the source that are not given here.

Experiments:
Type in all cases: in vivo, human
[1] = system: endothelial function; experiment: Reflection index (RI), salbutamol challenge test with digital volume plethysmography, type 2 diabetics; settings: for RI: DM, 400 mcg; for Absolute change of RI / Reflection index (%) Post Tt / Reflection index (%) Pre Tt: type 2 diabetics (Example 3), chromium products 400 mcg; for Absolute change of RI: 12 week treatment; for Reflection index (%) Post Tt: post-treatment, 12 weeks; for Reflection index (%) Pre Tt: pre-treatment
Method: (§1) The present clinical study is a prospective, randomized, double blind, placebo-controlled study. Patients of either sex, aged 30-65 years, fasting plasma glucose of 110-126 mg/dl, a glycosylated hemoglobin (HbA1c) between 6.5% and 8% and taking stable dose of anti-diabetic treatment (metformin 1500-2000 mg/day) for the past 8 weeks prior to the screening visit; and having endothelial dysfunction defined as ≤6% change in reflection index (RI) on post salbutamol challenge test were included in the study. Patients with severe uncontrolled hyperglyceamia, uncontrolled hypertension, cardiac arrhythmia, impaired hepatic or renal function, history of malignancy or stroke, smoking, chronic alcoholism, any other serious disease requiring active treatment and treatment with any other herbal supplements, were excluded from the study.
(§2) After screening, all the eligible subjects were randomized to receive either one of the three treatments orally for duration of 12 weeks—Group1—one capsule of Crominex®3+, 200 mcg once daily, Group 2—one capsule Crominex®3+, 400 mcg once daily; Group 3—one capsule of placebo once daily.
(§3) Subjects were required for follow up at 4, 8 and 12 weeks of therapy. At each visit they were evaluated for efficacy and safety. Pharmacodynamic evaluation for endothelial function was conducted at every visit. Blood samples were collected for evaluation of biomarkers before and at the end of treatment. Safety lab investigations for hematological, hepatic and renal biochemical parameters were conducted before and at the end of the study and also as and when required (in case of any adverse drug reaction (ADR). Subjects were enquired for the presence of ADR and the same was recorded in the case report form. Compliance to therapy was assessed by pill count method.
Procedure for Assessment of Endothelial Function by Determination of Reflection Index (RI).
A salbutamol (albuterol) challenge test employing digital volume plethysmography was used to assess endothelial function as reported by Chowienczyk et al., “Photoplethysmographic assessment of pulse wave reflection: blunted response to endothelium dependant beta 2-adrenergic vasodilation in type 2 diabetes mellitus,” J. Am. Coll. Cardiol. (1999 December) 34(7):2007-14; and Naidu, et al., “Comparison of two β2 adrenoceptor agonists by different routes of administration to assess human endothelial function,” Indian J. Pharmacol. (2007) 39:168-9. The patients were examined in supine position after 5 minutes of rest. A digital volume pulse (DVP) was obtained using a photo plethysmograph (Pulse Trace PCA2, PT200, Micro Medical, Gallingham, Kent, UK) transmitting infrared light at 940 nm, placed on the index finger of the right hand. The signal from the plethysmograph was digitized using a 12 bit analogue to digital converter with a sampling frequency of 100 Hz. DVP waveforms were recorded over 20 second period and the height of the late systolic/early diastolic portion of the DVP was expressed as a percentage of the amplitude of the DVP to yield the reflection index (RI), per the procedure described in detail by Millasseau et al., “Determination of age related increases in large artery stiffness by digital pulse contour analysis,” Clinical Science (2002) 103: 371-377. Three DVP recordings were taken, and measurements of reflection index (RI) were calculated and the mean value was determined. Patients were then administered 400 μg of salbutamol by inhalation. After 15 minutes three measurements of RI were obtained again and the difference in mean RI before and after administration of salbutamol was used for assessing endothelial function. A change of ≤6% in RI post-salbutamol was considered as endothelial dysfunction.
The primary efficacy measure was a change in endothelial dysfunction as assessed by more than 6% change in reflection index at 12 weeks. […]

[2] = system: glutathione (GSH); experiment: Glutathione level, spectrophotometric, type 2 diabetics; settings: for GSH: DM, 400 mcg; for Mean percentage change in GSH / GSH Post Tt / GSH Pre Tt: type 2 diabetics (Example 3), chromium products 400 mcg; for Mean percentage change in GSH: 12 week treatment; for GSH Post Tt: post-treatment, 12 weeks; for GSH Pre Tt: pre-treatment
Method: as §1, §2, §3
(§4) Nitric oxide, MDA, Glutathione and levels were estimated spectrophotometrically as follows. Malondialdehyde (MDA) levels were determined as described in Vidyasagar, et al., “Oxidative stress and antioxidant status in acute organophosphorous insecticide poisoning,” Indian J. Pharmacol. (April 2004) 36(2): 76-79. Glutathione levels were determined as described in G. L. Ellman, Arch. Biochem. Biophys. (1959) 82: 70-77 (original determination). Nitric oxide levels were estimated spectrophotometrically as described in Miranda, et al., “A Rapid, Simple Spectrophotometric Method for Simultaneous Detection of Nitrate and Nitrite,” NITRIC OXIDE: Biology and Chemistry (2001) Vol. 5, No. 1, pp. 62-71. hsCRP (high sensitivity C-reactive protein) was determined by ELISA method.
(§5) When the results with Crominex® 3+ in the above two examples were highly significant, especially with the 400 mcg once daily dose in type 2 diabetics, two more clinical studies (EXAMPLES 3 & 4) were conducted at the same institute, following the same methodology as described earlier, on the individual components of Crominex® 3+, i.e., chromium chloride and Phyllanthus emblica+Shilajit, and other chromium supplements available in the market, i.e., chromium picolinate, chromium polynicotinate and chromium dinicocysteinate, in type 2 diabetics as well as in subjects with metabolic syndrome symptoms.

[3] = system: malondialdehyde (MDA); experiment: Malondialdehyde level, spectrophotometric, type 2 diabetics; settings: for MDA: DM, 400 mcg; for Mean percentage change in MDA / MDA Post Tt / MDA Pre Tt: type 2 diabetics (Example 3), chromium products 400 mcg; for Mean percentage change in MDA: 12 week treatment; for MDA Post Tt: post-treatment, 12 weeks; for MDA Pre Tt: pre-treatment
Method: as §1, §2, §3, §4, §5

[4] = system: glutathione (GSH); experiment: Glutathione level, metabolic syndrome subjects; settings: for GSH: MS, 400 mcg; for GSH Post Tt / Mean percentage change in GSH / GSH Pre Tt: metabolic syndrome subjects (Example 4), chromium products 400 mcg; for GSH Post Tt: after 12 weeks of treatment; for Mean percentage change in GSH: after 12 weeks treatment; for GSH Pre Tt: pre-treatment
Method: as §4
(§6) Patients included in the study, were of either gender, aged 30-68 years, having endothelial dysfunction defined as ≤6% change in reflection index (RI) on post salbutamol challenge test and central obesity as defined by The International Diabetes Federation guidelines, dated 2006, and any two of the following conditions:
(§7) After screening, all the eligible subjects were randomized to receive either one of the three treatments orally for duration of 12 weeks: group 1—one capsule of Crominex®3+ 200 mcg once daily; group 2—one capsule 400 mcg once daily; group 3—one capsule of Placebo once daily.
(§8) Subjects were reviewed for follow up at 4 weeks, 8 and 12 weeks of therapy. At each visit they were evaluated for efficacy and safety. Pharmacodynamic evaluation for endothelial function was conducted at baseline and end of treatment. Blood samples were collected for evaluation of biomarkers before and at end of treatment. Safety lab investigations for hematological, hepatic and renal biochemical parameters were conducted before and at the end of the study and also as and when required (in case of any adverse drug reaction (ADR)). Subjects were enquired for the presence of ADR and the same was recorded in the case report form. Compliance to therapy was assessed by pill count method.
Assessment of endothelial function, biomarkers, safety parameters and primary and secondary efficacy parameters and data analysis were performed as described under the study with type 2 diabetic subjects in Example 1.
as §5

[5] = system: fasting plasma glucose; experiment: Fasting plasma glucose, metabolic syndrome subjects; settings: for Fasting Glucose: MS, 400 mcg; for Fasting Plasma Glucose Post Tt / Fasting Plasma Glucose Pre Tt: metabolic syndrome subjects (Example 4), chromium products 400 mcg; for Fasting Plasma Glucose Post Tt: after 12 weeks of treatment; for Fasting Plasma Glucose Pre Tt: pre-treatment
From the text: as §6, §7, §8, §5

[6] = system: fasting plasma glucose; experiment: Fasting plasma glucose, type 2 diabetics; settings: for Fasting Glucose: DM, 400 mcg; for Fasting Plasma Glucose Post Tt / Fasting Plasma Glucose Pre Tt: type 2 diabetics (Example 3), chromium products 400 mcg; for Fasting Plasma Glucose Post Tt: post-treatment, 12 weeks; for Fasting Plasma Glucose Pre Tt: pre-treatment
Method: as §5

Compound	RI [1]	Absolute change of RI [1]	Reflection index (%) Post Tt [1]	Reflection index (%) Pre Tt [1]	GSH [2]	Mean percentage change in GSH [2]	GSH Post Tt [2]	GSH Pre Tt [2]	MDA [3]	Mean percentage change in MDA [3]	MDA Post Tt [3]	MDA Pre Tt [3]	GSH [4]	GSH Post Tt [4]	Mean percentage change in GSH [4]	GSH Pre Tt [4]	Fasting Glucose [5]	Fasting Plasma Glucose Post Tt [5]	Fasting Plasma Glucose Pre Tt [5]	Fasting Glucose [6]	also measured
O.O.O.O.O.O.[Cl][Cr]([Cl])[Cl] [Chromium chloride, Chromium chloride (CrCl3.6H2O)]	−0.57%	−0.57 + 0.36 #NS %	−3.22 ± 0.85 %	−3.79 ± 0.82^ %	4.22%	4.22 ± 0.64 #$NS %	527.08 ± 16.98 μM/L	505.73 ± 16.66 μM/L	−5.14%	−5.14 ± 1.92 #NS %	3.73 ± 0.39 nmol/mL	3.93 ± 0.39 nmol/mL	4.2%	542.56 ± 46.51 μM/L	4.17 ± 1.80%	521.35 ± 49.06 μM/L	−2.7%	101.32 ± 16.51 NS	104.16 ± 14.92	0.87%	Fasting Plasma Glucose Post Tt [6]: 134.21 ± 9.32 NS mg/dL; Fasting Plasma Glucose Pre Tt [6]: 133.05 ± 7.95 mg/dL
chromium picolinate	−2.2%	−2.22 + 0.89 # %	−2.46 ± 0.90 %	−4.68 ± 1.24^ %	7.2%	7.20 ± 0.82 #@NS %	535.96 ± 31.89 μM/L	499.99 ± 30.23 μM/L	−6.03%	−6.03 ± 1.65 #NS %	3.78 ± 0.34 nmol/mL	4.02 ± 0.33 nmol/mL	7.1%	550.63 ± 26.21 μM/L	7.07 ± 1.95%	514.35 ± 25.09 μM/L	−4.27%	96.63 ± 13.11 @	100.95 ± 14.05 ^	1.2%	Fasting Plasma Glucose Post Tt [6]: 134.84 ± 6.78 NS mg/dL; Fasting Plasma Glucose Pre Tt [6]: 133.21 ± 8.27 mg/dL
chromium dinicocysteinate	−1.03%	−1.03 + 0.34 #NS %	−3.82 ± 0.74 %	−4.85 ± 0.74^ %	5.77%	5.77 ± 1.47 #$NS %	563.66 ± 11.04 μM/L	532.95 ± 10.63 μM/L	−6.62%	−6.62 ± 1.20@NS %	3.72 ± 0.30 nmol/mL	3.98 ± 0.31 nmol/mL	5.4%	558.38 ± 33.94 μM/L	5.41 ± 1.38%	529.89 ± 33.97 μM/L	−2.18%	99.50 ± 17.60 NS	101.72 ± 21.41	−3.2%	Fasting Plasma Glucose Post Tt [6]: 132.3 ± 4.41 $ mg/dL; Fasting Plasma Glucose Pre Tt [6]: 136.8 ± 6.99^ mg/dL
chromium polynicotinate	−1.04%	−1.04 + 0.39 #NS %	−3.71 ± 1.1 $ %	−4.3 ± 1.2%	5.3%	5.30 ± 1.04 #@NS %	534.54 ± 32.56 μM/L	507.72 ± 31.73 μM/L	−5.56%	−5.56 ± 1.34 #NS %	3.75 ± 0.24 nmol/mL	3.97 ± 0.23 nmol/mL	5.1%	549.43 ± 20.18 μM/L	5.09 ± 1.36%	522.92 ± 20.68 μM/L	−4.14%	95.95 ± 13.32 NS	100.10 ± 14.00	0.63%	Fasting Plasma Glucose Post Tt [6]: 136.3 ± 7.86 NS mg/dL; Fasting Plasma Glucose Pre Tt [6]: 135.45 ± 7.45 mg/dL
